Values of other authors in patent US9370540B2, “K2 composition and the preparation method and use of the same” (SINPHAR PHARMACEUTICAL CO., LTD., priority 2014, dated 2016).

Tested on: A549 cells
Details: from Molecular Carcinogenesis papers

C=C(CC[C@@H](C(=O)O)[C@H]1[C@H](O)C[C@@]2(C)C3=CC[C@H]4C(C)(C)C(=O)CC[C@]4(C)C3=CC[C@]12C)C(C)C [polyporenic acid C]
IC50, inhibiting the growth of lung cancer cells: about 15 μg/ml
